# Reference: PMC8190884 (ACS Omega, 2021)
# Marks after values point to notes of the source that are not given here.
# Columns and labels:
# [1] = target: T1, HIV reverse transcriptase (RT) (Human immunodeficiency virus type 1 group M subtype B, UniProt P04585); experiment: Pre-steady-state observed incorporation rate constant; assay type: biochemical, HIV-1; conditions: 5 μM nucleotide; for kobs ± standard deviation: 37 °C
# HIV RT [2] = experiment: Steady-state incorporation of 3′-O-CH3 dTTP by HIV RT; assay type: biochemical, HIV-1; conditions: 100 μM 3′-O-methyl dTTP; for kobs ± standard deviation (steady-state): 20 nM primer–template, 20 nM RT, 30 min
# HIV RT [3] = experiment: Primer extension inhibition assay on a 100-nt DNA template; assay type: biochemical, HIV-1; conditions: 5 μM dNTPs, 3 μM analogue, 0.5 or 6 mM Mg2+, 30 min
# HIV = conditions: cited from earlier work
# [4] = target: T1, HIV reverse transcriptase (RT); experiment: Pre-steady-state determination of KD and kpol; assay type: biochemical, HIV-1; conditions: for kpol (maximum incorporation rate) / Kd: curve fit ± standard error; for Kd: Kd (equilibrium dissociation constant)
# HIV RT [5] = conditions: 6 mM Mg2+, different template; ref manuscript in preparation; cited from earlier work
Structure (SMILES),6/0.5 mM Mg2+ with the same nucleotide (ratio of kobs; fold slower in 0.5 mM) [1],relative rate vs dTTP same [Mg2+] ([1]; 0.5 mM Mg2+),kobs ± standard deviation ([1]; 0.5 mM free Mg2+),relative rate vs dTTP same [Mg2+] ([1]; 6 mM Mg2+),kobs ± standard deviation ([1]; 6 mM Mg2+),further results
"Cc1cn([C@H]2CC[C@@H](COP(=O)(O)OP(=O)(O)OP(=O)(O)O)O2)c(=O)[nH]c1=O [ddTTP, dideoxy TTP]",5.1,0.16,1.4 ± 0.7 s^–1,0.51,7.2 ± 1.0 s^–1,fold slower kobs compared to dTTP ([1]; 6 mM (high) Mg2+): about 2 fold
Cc1cn([C@H]2C[C@H](F)[C@@H](COP(=O)(O)OP(=O)(O)OP(=O)(O)O)O2)c(=O)[nH]c1=O [3′-fluoro dTTP],2.8,0.063,0.54 ± 0.13 s^–1,0.11,1.5 ± 0.1 s^–1,fold slower kobs compared to dTTP ([1]; 0.5 mM (low) Mg2+): > 10 fold
Cc1cn([C@H]2C[C@H](N)[C@@H](COP(=O)(O)OP(=O)(O)OP(=O)(O)O)O2)c(=O)[nH]c1=O [3′-amino dTTP],3.8,0.094,0.81 ± 0.13 s^–1,0.22,3.1 ± 0.1 s^–1,fold slower kobs compared to dTTP ([1]; 0.5 mM (low) Mg2+): > 10 fold
Cc1cn([C@H]2C[C@H](O)[C@@](C)(COP(=O)(O)OP(=O)(O)OP(=O)(O)O)O2)c(=O)[nH]c1=O [4′-C-methyl dTTP],0.88,0.52,4.5 ± 1.4 s^–1,0.28,3.9 ± 2.8 s^–1,"incorporation rate, fold faster than D-carba dTTP ([1]; 6 mM Mg2+): about 3 fold"
CO[C@H]1C[C@H](n2cc(C)c(=O)[nH]c2=O)O[C@@H]1COP(=O)(O)OP(=O)(O)OP(=O)(O)O [3′-O-methyl dTTP],,,,,,"6/0.5 mM Mg2+ with the same nucleotide (steady-state rates) (HIV RT [2]): 5.4; kobs ± standard deviation (steady-state) (HIV RT [2]; 0.5 mM Mg2+): 3.3 × 10^–5± 0.6 × 10^–5 ^c nM/min; kobs ± standard deviation (steady-state) (HIV RT [2]; 6 mM Mg2+): 1.8 × 10^–4± 0.2 × 10^–4 ^c nM/min; inhibition of primer extension (terminated vs fully extended products), in words (HIV RT [3]): no inhibition"
Nc1ncnc2c1ncn2[C@H]1CC[C@@H](CO[P@@](=O)(O)O[P@](=O)(O)OP(=O)(O)O)O1 [ddATP],,,,,,"selectivity index, fold lower than that for AZT (HIV): about 4.5 fold"
Cc1cn([C@H]2C[C@H](N=[N+]=[N-])[C@@H](CO[P@](=O)(O)O[P@](=O)(O)OP(=O)(O)O)O2)c(=O)[nH]c1=O [AZTTP],4.5,0.23,2.0 ± 0.5 s^–1,0.63,8.9 ± 1.9 s^–1,fold slower kobs compared to dTTP ([1]; 6 mM (high) Mg2+): about 2 fold; efficiency decline (fold decline in kpol/Kd relative to dTTP at the same Mg2+) ([4]; 0.5 mM Mg2+): 7.2 fold; kpol/Kd (catalytic efficiency) ([4]; 0.5 mM Mg2+): 0.6; kpol (maximum incorporation rate) ([4]; 0.5 mM Mg2+): 3.3 ± 0.3 s^–1; efficiency decline (fold decline in kpol/Kd relative to dTTP at the same Mg2+) ([4]; 6 mM Mg2+): 1.5 fold; kpol (maximum incorporation rate) ([4]; 6 mM Mg2+): 17.0 ± 0.6 s^–1; Kd ([4]; 0.5 mM Mg2+): 5.5 ± 1.7 µM
"Cc1cn([C@H]2C=C[C@@H](COP(=O)(O)OP(=O)(O)OP(=O)(O)O)O2)c(=O)[nH]c1=O [d4TTP, 2′,3′-didehydro-2′,3′-dideoxythymidine triphosphate]",4.6,0.21,1.8 ± 0.7 s^–1,0.59,8.3 ± 0.8 s^–1,fold slower kobs compared to dTTP ([1]; 6 mM (high) Mg2+): about 2 fold; efficiency decline (fold decline in kpol/Kd relative to dTTP at the same Mg2+) ([4]; 0.5 mM Mg2+): 6.7 fold; kpol/Kd (catalytic efficiency) ([4]; 0.5 mM Mg2+): 0.64; kpol (maximum incorporation rate) ([4]; 0.5 mM Mg2+): 4.9 ± 0.5 s^–1; efficiency decline (fold decline in kpol/Kd relative to dTTP at the same Mg2+) ([4]; 6 mM Mg2+): 3.2 fold; kpol/Kd (catalytic efficiency) ([4]; 6 mM Mg2+): 1.9; kpol (maximum incorporation rate) ([4]; 6 mM Mg2+): 22.3 ± 1.7 s^–1
CC[C@]1(COP(=O)(O)OP(=O)(O)OP(=O)(O)O)O[C@@H](n2cc(C)c(=O)[nH]c2=O)C[C@@H]1O [4′-C-ethyl dTTP],,0.15,1.3 ± 0.1 s^–1,0.28,3.9 ± 0.4 s^–1,"incorporation rate, fold faster than D-carba dTTP ([1]; 6 mM Mg2+): about 3 fold; inhibition of primer extension (terminated vs fully extended products), in words (HIV RT [3]): less effective"
Cc1cn([C@@H]2C[C@H](COP(=O)(O)OP(=O)(O)OP(=O)(O)O)[C@@H](O)C2)c(=O)[nH]c1=O [D-carba dTTP],not strongly affected,0.13,1.1 ± 0.5 s^–1,0.092,1.3 ± 0.1 s^–1,"inhibition of primer extension (terminated vs fully extended products), in words (HIV RT [3]): by far the weakest inhibitor; inhibition of primer extension (terminated vs fully extended products), in words (HIV RT [3]; listed as D-carba): weak inhibitor under both conditions; KD, fold higher than 4′-C-ethyl and 4′-C-methyl dTTP (HIV RT [5]): 4–8 fold"
"Cc1cn([C@H]2C[C@H](O)[C@@H](CO[P@](=O)(O)O[P@@](=O)(O)OP(=O)(O)O)O2)c(=O)[nH]c1=O [dTTP, Deoxythymidine triphosphate]",1.6,1,8.6 ± 1.3 s^–1,1,14.1 ± 1.2 s^–1,efficiency decline (fold decline in kpol/Kd relative to dTTP at the same Mg2+) ([4]; 0.5 mM Mg2+): 1 fold; kpol/Kd (catalytic efficiency) ([4]; 0.5 mM Mg2+): 4.3; kpol (maximum incorporation rate) ([4]; 0.5 mM Mg2+): 14.3 ± 0.8 s^–1; efficiency decline (fold decline in kpol/Kd relative to dTTP at the same Mg2+) ([4]; 6 mM Mg2+): 1 fold; kpol/Kd (catalytic efficiency) ([4]; 6 mM Mg2+): 6.0; kpol (maximum incorporation rate) ([4]; 6 mM Mg2+): 25.0 ± 1.3 s^–1; Kd ([4]; 0.5 mM Mg2+): 3.3 ± 0.6 µM; Kd ([4]; 6 mM Mg2+): 4.2 ± 0.7 µM
